Laboratory results published in paper PMC5522078, “Discovery and characterization of small molecules targeting the DNA-binding ETS domain of ERG in prostate cancer” (Oncotarget, 2017).
Read-outs that look alike come from different tables or passages of the source.

Assays:
[1] = Murine pharmacodynamics and toxicology studies; assay type: in vivo, mice
Method: Supplementary Figure 10: (A) In a preliminary study to evaluate in vivo toxicity and establish working oral (PO) doses, Nu/nu mice (n = 4) received a single PO dose of VPC-18005 (100 mg/kg or 500 mg/kg) dissolved in cyclodextrin. Blood was collected directly after injection and at the times indicated. Serum concentration of VPC-18005 was determined for each time point. (B) In a 4 week “repeated dose” study, body weight was measured daily for mice (n = 4) that received a daily dose of VPC-18005 (150 mg/kg BID) dissolved 50% ethanol (PO) or 50% ethanol (Vehicle). Change in weight of each animal was normalized to starting pretreatment weight. (C) Cytotoxicity serum markers of vehicle and VPC-18005 treated animals described in B) were determined and presented as average (Avg. Conc.) and standard deviation (SD) with corresponding paired t-test p values. LC-MS analysis of serum indicators of major organ toxicity (albumin (ALB), alkaline phosphatase (ALP) and alanine aminotransferase (ALT) as indicators of liver dysfunction, amylase (AMY) to test for acute pancreatitis, total bilirubin (TBIL) to assess jaundice, and blood urea nitrogen (BUN) to assess kidney function from endpoint samples

PNT1B-ERG cells [2] = experiment: Real time cell migration (xCELLigence), PNT1B cells; assay type: cell-based, human; conditions: 5 μM
Method: Cell migration was monitored using CIM-16 migration plates via the xCELLigence platform (ACEA). FBS-supplemented media (160 μL) was added to the lower chamber of the plate and incubated at RT for 30 min. The upper chamber was then mounted and 30 μL of serum free media (SFM) was added to each well and left to equilibrate in the incubator for 1 h at 37°C. After the incubation, a background reading was taken for each well. […] Real time readings of cell index values were recorded initially every 5 min until the end of the experiment (48 hr).

VCaP cells = experiment: MTS cell viability assay, VCaP; assay type: cell-based, human; conditions: 72 h
Method: 3-(4,5-dimethylthiazol-2-yl)-5-(3-carboxymethoxyp henyl)-2-(4-sulfophenyl)-2H-tetrazolium, inner salt (MTS). Cells were seeded at a density of 3000 cells per well (except VCaP at 20,000/well) in 100 μL of appropriate media in 96 well culture dishes. Twenty four hours later, 100 μL of medium containing vehicle control or compounds. Each treatment was prepared in triplicate. After a 72 h treatment, cellular viability was assessed using CellTiter 96 ® Aqueous One Solution Cell Proliferation Assay reagent (Promega) according to the manufacturer's instructions. Values were normalized to the DMSO control.

[3] = Compound solubility and stability (LC-PDA-MS); assay type: physicochemical
Method: This […] […] Data was analyzed using FlowJo Eppendorf tubes. Saturated PBS samples were further software (TreeStar, USA). […] After 24 h, plates were treated with vehicle control, […] and a Quattro Premier (Waters). […] […] diluting stocks (50 mM in DMSO) 1000x in Methanol (standard), PBS, or media. Resulting solutions were clarified by centrifugation and an aliquot of the supernatant was extracted with 2 volumes acetonitrile. VPC-18005 solubility determined as fraction remaining as quantified by LC-PDA-MS versus the methanol solution as standard.

PNT1B-ERG spheroids = experiment: 3D spheroid invasion assay; assay type: cell-based, human; conditions: compared to vehicle control
Method: 3D Spheroid BME Cell Invasion Assay (Trevigen) was performed as per manufacturer's instructions. […] Spheroids were then incubated at 37°C for 3 to 7 days, and photographed using Zeiss AxioObserver Z1 microscope in each well on the day of invasion mix addition and every two days following. Spheroids were retreated with 50 μL of vehicle control or compound after 72 hr.

PNT1B-ERG or VCaP cells = experiment: Zebrafish yolk sac dissemination (xenograft metastasis) assay; assay type: in vivo; conditions: 1 and 10 μM in water; 5 days; untreated 65 to 70%
Method: Research was carried in accordance with protocols compliant to the Canadian Council on Animal Care and with the approval of the Animal Care Committee at the University of British Columbia. The wildtype zebrafish strain was maintained in aquaria according to standard protocols. Embryos were generated by natural pair-wise matings and raised at 28.5°C on a 14 h light/10 h dark cycle in a 100 mm^2 petri dish containing aquarium water. Phenylthiourea (0.2 mM PTU, Sigma) was added to the embryos at 10 h post-fertilization (hpf) to prevent pigment formation. Yolk sac dissemination assay. PCa cell lines were fluorescently labelled the day before microinjection with 1.5 μM of CellTracker CM-Dil dye (Life Technologies) as per manufacturer's instructions. Wild-type embryos were dechorionated at 2 dpf. Following anaesthetization with tricane, approximately 50–70 cancer cells were microinjected into the yolk sac. Embryos were then transferred to 100 mm^2 plates that contained aquaria water with added PTU and VPC-18005, YK-4-279 or DMSO control. Embryos were visually assessed for presence of xenograph. […] Embryos were kept at 35°C for the duration of the experiment. Approximately, 50 fish were injected per cell line and metastasis was determined on Day 4 and 5 by observation using the Zeiss Axio Observer microscope (5X objective) controlled with Zen 2012 software. […]

PNT1B-ERG cells [4] = experiment: Real time growth assay (Incucyte confluence); assay type: cell-based, human; conditions: 1, 5 or 15 µM; 168 h
Method: www.impactjournals.com/oncotarget/ Oncotarget Supplementary Materials
Discovery and characterization of small molecules targeting the DNA-binding ETS domain of ERG in prostate cancer […]
samples where less saturation of MS data is expected. This […]
and gives reasonable estimates when the use of MS […]
sulfoxide (DMSO) were diluted 1,000× into methanol
The (Gibco), then underwent APC BrdU Flow Kit protocol
Cells were analysed on a FACSCanto™
Data was analyzed using FlowJo
Eppendorf tubes. Saturated PBS samples were further software (TreeStar, USA). Biological replicates were diluted with an equal volume of PBS. Aliquots of these analysed statistically by Two-Way ANOVA. […]
the dark. Aliquots taken at later time points were vortex mixed for 1 h prior to sampling. MeOH and diluted PBS Proliferation/cell viability assay […]
were extracted with two volumes acetonitrile (ACN) and centrifuged at 20,000 g for 5 min.
After 24 h, plates were treated with vehicle control, […]
and a Quattro Premier (Waters).
2points/sec were collected with the PDA. The sampler expression datasets from PCa patients […]
represent the mean ± SEM of triplicate experiments. […]
post hoc test. […] The G0–G1 phase
Growth assay of PNT1B-ERG cells

PC3 cells = test system: PC3 cells; set-up: method as in PMID 21559405; conditions: read-out: IC50 for cytotoxicity in PC3 cells; cited from earlier work

SMILES	Solubility, stability and oral bioavailability in mice ([1]; Nu/nu mice, PO)	Serum indicators of major organ toxicity (ALB, ALP, ALT, AMY, TBIL, BUN) ([1]; mice, 150 mg/kg BID, 4 weeks, endpoint samples)	General toxicity, repeated dose ([1]; mice, 4 week BID at 150 mg/kg PO)	General toxicity, single dose ([1]; mice, single doses of up to 500 mg/kg PO)	Rate of migration of PNT1B-ERG cells (PNT1B-ERG cells [2]; 24 h exposure, relative to vehicle)	Effect on cell viability (MTS), VCaP (VCaP cells; 0.2–25 μM)	solubility at 1 h ([3]; cell culture media (RPMI + 5% charcoal stripped serum), plasma or biological fluid, kinetic from dmso stock, RPMI + 5% CSS, 50 mM DMSO stock diluted 1,000x) [µM]	Media solubility ([3]; media)	Stability in media (fraction remaining) ([3]; media, 3 days, RT) [%]	Rate of spheroid invasion between day 2 and 6 (PNT1B-ERG spheroids)	Percentage of fish with PNT1B-ERG or VCaP dissemination (PNT1B-ERG or VCaP cells)	Effect on proliferation / cell growth (real time cell analysis) (PNT1B-ERG cells [4])	Cytotoxicity in migration assay (PNT1B-ERG cells [2]; PNT1B-MOCK and PNT1B-ERG cells)	Doses with inhibition of cell viability (MTS), VCaP (VCaP cells) [µM]	Media solubility [3]	Stability in media (fraction remaining) ([3]; 72 h) [%]	IC50 (PC3 cells) [µM]
CC(C)c1ccc(C=N/N=C2\NC(=O)[C@@H](CC(=O)O)S2)cc1 (stereo in doubt) [VPC-18005, 2-((Z)-2-(((Z)-4-isopropylbenzylidene)hydrazono)-4-oxothiazolidin-5-yl)acetic acid]	soluble, stable and orally bioavailable	no significant impact	does not exhibit general toxicity	does not exhibit general toxicity	significantly reduced	did not decrease viability	> 50	soluble in media	93	significantly reduced	20–30%	did not suppress proliferation or induce cell death					
COc1ccc(C(=O)CC2(O)C(=O)Nc3c(Cl)ccc(Cl)c32)cc1 (centres unmarked) [YK-4-279, reference compound]										significantly reduced	40–60%	dose-dependent effect	cytotoxicity in both cell lines	≥ 5	soluble	60	> 100
